Measurements: US7572436B1, “Thionin as an antineoplastic and immunostimulant” (priority 2000, dated 2009)
Where no end group is shown, it is not given here.

Columns and labels:
[1] = test system: DU-145 Target Cells; experiment: Natural killer assay (^51Cr release), human PBLs against DU-145; format: cell-based; conditions: PT 0.05 μg/ml
Experimental: (§1) Murine spleen cell and human peripheral blood lymphocytes (PBLs) were obtained as described in the procedure for the Mitogen Assay.
(§2) Drugs and control substances were added, using sterile techniques, to the wells of a 24-well plate, using RPMI-10 as the culture medium. Spleen cells or human lymphocytes were added last to the wells at a concentration of 4×10^6 cells per 2 ml total volume in the well. Splenocyte incubation was usually three days (65-70 hours) while human lymphocyte stimulation may be extended to four to five days. The cells were incubated at 37° C. in a humidified 5% CO2 incubator.
(§3) On the day of harvest, 10^7 target cells were labeled with 150 μCi of ^51Cr (sodium chromate). Target cells used were YAC-I (murine Lymphoma) or K562 (human chronic myelogenous leukemia). […]
(§4) The 96-well plate was centrifuged at 150×g for four minutes to gently bring the effector and target cells in contact. […] The percent release was calculated using the following formula: […]
(§5) Addition of PT stimulates both murine splenocytes and human PBLs to kill tumor cells through lysis. […] After a 30-minute incubation, the radioactivity in the supernatant fluid was counted as a measure of lysis of the target cells, which reflects NK activity. […]

[2] = test system: B16F10 melanoma tumor cells; experiment: In vivo inhibition of B16F10 melanoma tumor development; set-up: species or system C57BL/6NCr female mice
Experimental: C57BL/6NCr female mice (20 g), approximately 50 days old, were shaved in the abdominal area, ear notched for identification, and, two or three days prior to receiving tumor cells, pre-injected subcutaneously with the immunostimulating drugs described.
On “day zero,” B16F10 melanoma tumor cells, cultured in αMEM medium with 10% FBS, were injected intradermally (10^5 cells in 0.1 ml) in the center of the mouse abdomen using a 26 gauge ½ inch needle. Four to five hours later, the drug treatment (as specified) was injected intradermally in a different area of the abdomen than the site of the tumor injection.
Intradermal treatments using the immunostimulatory drug (as specified) continued either every other day or on a Monday-Wednesday-Friday injection schedule. Control tumors (in mice not receiving an immunostimulatory drug) usually formed within seven to ten days. Tumors were examined by visual inspection, measured (length by width), and the area of any resulting lesion was recorded as mm^2 every five days.
Mice were euthanized by CO2 inhalation if the tumor exceeded 500 mm^2. Some experiments were terminated early if all mice in the control group were dead, but the experiments were not less than 20 days. The normal duration of an experiment was about 30 days.
Pyrularia thionin, both alone and in combination with IL-2, was effective in preventing or retarding the development of melanoma tumors when C57BL/6NCr mice were pretreated before injection with B16F10 cells, which produce melanoma tumors.

[3] = Immunogenicity of PT
[4] = Toxic effect of PT on mice in vivo (LD50); set-up: species or system mouse
[5] = test system: K562 Target Cells; experiment: Natural killer assay (^51Cr release), human PBLs against K562; format: cell-based; conditions: PT 0.01 μg/ml
Experimental: as §1, §2, §3, §4, §5

## Pyrularia thionin (KSCCRNTWARNCYNVCRLPGTISREICAKKCDCKIISGTTCPSDYPK; ends and bridges not checked; also: labeled with 125I) [PT]
[1]
  % Cytotoxicity: 11.5 ± 1.1%
[2]; 3 μg PT (with or without 100 units murine IL-2) sc five and two days prior to B16 cells and three times weekly thereafter
  development of tumors compared to mice injected with saline: slowed the development of tumors
[2]; B16 melanoma in C57 mice, sc 3 μg PT, 100 units IL-2, 20-31 days
  Average Tumor Size: 191 mm^2
[2]; B16 melanoma in C57 mice, sc 3 μg PT, 100 units IL-2, total mice 12 (IL-2), 15 (PT), 24 (PT + IL-2)
  Number of Deaths: 1
[2]; B16 melanoma in C57 mice, sc 3 μg PT, 100 units IL-2, total mice 12 (IL-2), 15 (PT), 24 (PT + IL-2), 20-31 days
  Mice w/o Tumors: 1
[2]; B16 melanoma, Table 2 and FIG. 2
  remission of established tumors: did not cause remission of established tumors
[2]; PT injected along with IL-2, per mouse
  PT dose giving the best response: 3 µg
[2]; per mouse, with IL-2
  PT dose with little protection: > 5 µg
[3]
  immunogenicity: not immunogenic
[4]; for a 20-gram mouse
  LD50: 30 µg
[4]; versus 3 μg PT
  LD50 relative to the amount with maximal protective (immunostimulatory) effect: ten times greater
[5]
  % Cytotoxicity: 8.4 ± 0.1%
